# Reference: US20060211744A1, “3-Pyridinecarboxamide reduces nerve degeneration” (Children's Medical Center, priority 2005, published 2006)
# Like-named read-outs stand apart in the source and are kept apart here.
# Legend:
# Assay type in all cases: in vivo
# [1] = system: SOD1-G93A transgenic mice; settings: for reduction of neural degeneration in ALS mice, behavioral testing: subcutaneous, daily from 10 weeks from birth
# [2] = system: experimental autoimmune encephalomyelitis (EAE) mice
# Source text: EAE is an inflammatory, demyelinating disease that can be induced by immunizing animals against myelin antigens, and is an accepted animal model for multiple sclerosis (MS) as it has similarities based on both the histopathology and the clinical course of the affected animals. In methods adapted from Lo et al. (J Neurophysiol. 2003 November;90(5):3566-71) we examine the effect of nicotinamide on axonal degeneration within the dorsal columns (cuneate fasciculus) and dorsal corticospinal tracts of the spinal cord.
# Induction of EAE. Experiments are carried out in accordance with National Institutes of Health guidelines for the use of laboratory animals. C57/BL6 mice 6-10 wk of age are injected subcutaneously with 200 μl of an emulsion of 300 μg of rat myelin oligodendrocyte glycoprotein (MOG) 35-55 peptide (Keck Biotechnology Center, Yale University) in incomplete Freund's adjuvant (IFA, Sigma, St. Louis, Mo.) supplemented with 250-500 μg of Mycobacterium tuberculosis H37Ra (Difco, Detroit, Mich.). The MOG injection, with mycobacterium supplemented IFA, is repeated in the opposite flank 1 wk later. The mice also receive an injection of 250-500 ng pertussis toxin (Sigma) in 200 μl PBS ip immediately after the first immunization with MOG and then again 48 h later.
# Nicotinamide treatment. Beginning on day 10 after the initial MOG injection, control and EAE-induced mice are fed pelleted mice chow incorporating nicotinamide (Sigma) to achieve an average daily consumption of 500 mg/kg nicotinamide. A separate group of EAE mice are fed the identical standard mice chow not containing nicotinamide. Serum nicotinamide levels are measured by HPLC (Chatzimichalakis et al, J Sep Sci. (2004) 27:1181-8) from two mice in each group on day 14 and on the day of either perfusion (days 27-28) or electrophysiological study (days 24-30).
# Mice are observed daily for clinical signs and scored on a 0-6 scale, with 0.5 gradations for intermediate scores, as follows: 0, normal without clinical signs; 1, flaccid tail; 2, abnormal righting reflex; 3, partial hindlimb paralysis; 4, complete hindlimb paralysis; 5, moribund; and 6, death.
# Electrophysiological recordings. Fourteen adult male C57/BL6 mice are used for assessing spinal cord conduction. Untreated EAE (n=6) and nicotinamide-treated EAE (n=4) mice are studied between days 24 and 30 and age-matched nicotinamide-treated mice (n=4) are used as controls. Mice are anesthetized with halothane, and deep anesthesia is maintained with 1.1% halothane through a tracheal cannula by artificial ventilation (75-80 strokes/min, 0.7 ml/stroke) and verified by the absence of a withdrawal reflex to noxious peripheral pinch. Heartbeats (˜360 beats/min) and body temperature are carefully monitored. Mice are fixed in a stereotaxic apparatus (Kopf Instruments). A midline incision is made through the skin, a laminectomy is performed, and the dura is carefully cut to expose the lower thoracic and lumbar spinal cord regions. Silver wire electrodes (0.01-in diam, A-M Systems) insulated except at the tips are used for stimulation of dorsal column axons at L4-5 and recording of compound action potentials (CAP) at T11-12. Using stereotaxic measurements, the electrodes are positioned 8 mm apart at the surface of the midline spinal cord. Pancuronium bromide (0.3 mg/kg, Sigma) is injected ip to prevent further muscular contractions throughout the experiment. The signal from the recording electrode is amplified with filters set at 300-3,000 Hz (Dam 80, WPI) and collected (CED 1401, Cambridge Electronic Design), and a computer is used for data analysis (Spike 2 program, Cambridge Electronic Design). Single-current pulses (0.05 ms) are applied through a stimulus isolation unit (A365, WPI, and Master-8, AMPI) in increments (0.2, 0.3, 0.6, 0.8, and 1 mA). The amplitude of CAP is calculated as the value between the positive and negative peaks of the biphasic wave. […]
# [3] = system: EAE mice (wild type or Wlds); assay: Mouse EAE model, subcutaneous nicotinamide (Example 9 end, Example 12); settings: for reduction of neural degeneration in EAE mice: daily from day of MOG immunization
# Experimental: In initial experiments, we administered nicotinamide daily starting from the day of immunization by MOG peptide, and found efficacy in both 125 mg/kg and 500 mg/kg treatment groups. We have also examined groups of mice wherein initiation of nicotinamide administration was delayed until 10 days after the immunization by MOG peptide (delayed treatment group), to better model clinical conditions wherein patients typically begin treatment after onset of pathogenic autoimmunity.
# In this example we administered NAm by daily subcutaneous injection at two different dosages (125 or 500 mg/kg, dissolved by PBS) starting from the day of MOG immunization. As a control, we administered the same volume of PBS into either wild type or Wld^s mice. The EAE models were induced following essentially the procedure described in Kalyvas et al (2004, Neuron 41, 323-335). Other protocols were adapted from Wang, et al. (2005) J. Cell. Biol. 170: 349-355.
# We started treatments with NAm (500 mg/kg, daily subcutaneous injection) from 10 days P.I. when most of the animals already have clear clinical symptoms.
# [4] = SOD1-G93A, nicotinamide diet from 7 wk of age
# [5] = nicotinamide-treated EAE, days 24-30
# [6] = 500 mg/kg daily s.c. from 10 days P.I.
smiles,measurement,setting,value
"NC(=O)c1cccnc1 [nicotinamide, 3-pyridinecarboxamide]",age at bilateral hindlimb paralysis,"[1]; SOD1-G93A, both normal diet and nicotinamide diet",127-157 days of age
same,age through to which walking capacity is improved (grid walking test),"[1]; SOD1-G93A, nicotinamide diet",124 days of age
same,age through to which motor functions are preserved (Rotarod),"[1]; SOD1-G93A, nicotinamide diet (control diet onset 108 days)",120 days of age
same,"onset of impairment in balance, coordination and muscle strength (Rotarod)",[1]; [4],significantly delays the onset of impairment
same,walking capacity (grid walking test),[1]; [4],significantly improves walking capacity
same,Rotarod performance score (latency),"[1]; mouse, in vivo",180 s
same,body condition scoring (BCS),"[1]; mouse, in vivo",3
same,foot miss scores (grid walking test),"[1]; mouse, in vivo",0
same,"general health and neurologic status (lacrimation/salivation, eye blink, ear twitch, pupillary response, whisker orienting reflex)","[1]; mouse, in vivo",no obvious differences
same,"reduction of neural degeneration in ALS mice, behavioral testing",[1]; 125 mg/kg,efficacy
same,"reduction of neural degeneration in ALS mice, behavioral testing",[1]; 500 mg/kg,efficacy
same,effect on dorsal corticospinal column and dorsal column (cuneate fasciculus) axons,"[2]; EAE mice, 27-28 days",significant protective effect
same,clinical course versus untreated EAE mice,"[2]; EAE mice, chow 500 mg/kg daily from day 10",less severe clinical course
same,clinical score (0-6 scale),"[2]; EAE mice, chow 500 mg/kg daily from day 10, day 27-28 (untreated EAE 3-4)",1-2
same,clinical signs in nicotinamide-treated control mice,"[2]; mouse, in vivo",do not display any pathological clinical signs
same,"difference in density of neurofilament-labeled axons, untreated versus nicotinamide-treated controls","[2]; mouse, in vivo",not significant
same,average CAP amplitude and area versus nicotinamide-treated control group,[2]; [5],not significantly different
same,conduction velocity,[2]; [5],maintained close to normal levels
same,"NAD levels, delayed treatment",[3]; [6],increased NAD levels effectively
same,"further development of EAE symptoms, delayed treatment",[3]; [6],efficiently attenuated further development of EAE symptoms
same,"number of degenerating axons, delayed treatment","[3]; 500 mg/kg daily s.c. from 10 days P.I., 8 weeks P.I.",significantly reduced the number of degenerating axons
same,degenerating axons detected compared with untreated animals,"[3]; Wlds mice, high dose",~5%
same,effect on EAE symptoms,"[3]; Wlds mice, high dose 500 mg/kg",More dramatic improvements
same,NAD levels at 2 and 4 weeks P.I.,"[3]; Wlds mice, high dose (500 mg/kg) s.c.",remained at high levels
same,axons remaining morphologically intact (Toluidine Blue),"[3]; Wlds mice, high dose, 8 weeks P.I.",~90%
same,NAD levels at 2 weeks P.I.,[3]; daily s.c. 125 or 500 mg/kg from day of MOG immunization,dramatically increased NAD levels in a dose-dependent manner
same,reduction of neural degeneration in EAE mice,"[3]; subcutaneous, 125 mg/kg",efficacy
same,reduction of neural degeneration in EAE mice,"[3]; subcutaneous, 500 mg/kg",efficacy
same,"neural degeneration versus matched controls, delayed treatment group","[3]; subcutaneous, started 10 days after MOG immunization",reduced neural degeneration
same,axons in peripheral regions of the spinal cord,"[3]; wild type EAE mice, high dose",increased numbers of demyelinated but preserved axons
same,numbers of SMI-32-positive axons,"[3]; wild type and Wlds mice, 2, 4 and 8 weeks P.I.",significantly reduced numbers
same,onset and development of EAE symptoms,"[3]; wild type mice, 125 or 500 mg/kg s.c. daily",ameliorated the onset and development of EAE symptoms in a dose-dependent manner
same,NAD levels at 4 weeks P.I.,"[3]; wild type mice, continuous daily s.c. administration",returned to near-normal levels
same,degenerating axons detected compared with untreated animals,"[3]; wild type mice, high dose",approximately 10%
same,effect on EAE onset and severity,"[3]; wild type mice, high dose 500 mg/kg",significant improvement
same,axons remaining morphologically intact (Toluidine Blue),"[3]; wild type mice, high dose, 8 weeks P.I. (control wild type EAE 25%)",approximately 70%
